Laboratory results published in BindingDB's records for doi:10.1016/j.bmcl.2015.05.099 (Mercer University, 2015).

Columns and labels:
Albumin [1] = molecular target: T1, Albumin (Homo sapiens, UniProt P02768); assay: Binding affinity to human serum albumin with excitation at 285 nm after 30 mins by fluorescence spectrophotometric analysis
Albumin [2] = molecular target: T1, Albumin; assay: Binding affinity to human serum albumin with excitation at 295 nm after 30 mins by fluorescence spectrophotometric analysis

T1 sequence (P02768 whole entry): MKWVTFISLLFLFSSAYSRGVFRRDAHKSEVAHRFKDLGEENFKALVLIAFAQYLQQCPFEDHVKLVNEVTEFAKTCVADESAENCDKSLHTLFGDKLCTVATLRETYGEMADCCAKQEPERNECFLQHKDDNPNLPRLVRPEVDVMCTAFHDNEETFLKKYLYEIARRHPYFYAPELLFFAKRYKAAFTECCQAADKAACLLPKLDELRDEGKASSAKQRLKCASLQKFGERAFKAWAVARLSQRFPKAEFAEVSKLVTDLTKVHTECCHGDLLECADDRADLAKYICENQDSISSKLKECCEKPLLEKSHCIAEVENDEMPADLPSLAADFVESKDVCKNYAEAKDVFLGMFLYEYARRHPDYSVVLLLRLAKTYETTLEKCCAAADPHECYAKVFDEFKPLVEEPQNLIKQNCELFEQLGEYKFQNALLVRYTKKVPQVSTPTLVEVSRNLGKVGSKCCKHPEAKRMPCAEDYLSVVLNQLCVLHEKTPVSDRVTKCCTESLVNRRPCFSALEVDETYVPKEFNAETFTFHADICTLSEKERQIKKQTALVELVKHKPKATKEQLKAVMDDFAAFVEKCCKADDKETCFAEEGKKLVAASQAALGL

Kd (Albumin [1]) [µM] | Kd (Albumin [2]) [µM] | SMILES
47 | 37 | C=C(C)[C@@H]1CC[C@]2(C(=O)N[C@H](C)C(=O)O)CC[C@]3(C)[C@H](CC[C@@H]4[C@@]5(C)CC[C@H](O)C(C)(C)[C@@H]5CC[C@]43C)[C@@H]12
1.6 | 1.9 | C=C(C)[C@@H]1CC[C@]2(C(=O)[O-])CC[C@]3(C)[C@H](CC[C@@H]4[C@@]5(C)CC[C@H](O)C(C)(C)[C@@H]5CC[C@]43C)[C@@H]12.CCCCCCCCCCCC[N+](C)(C)Cc1ccccc1
19 | 19 | C=C(C)[C@@H]1CC[C@]2(C(=O)N[C@H](C)C(=O)[O-])CC[C@]3(C)[C@H](CC[C@@H]4[C@@]5(C)CC[C@H](O)C(C)(C)[C@@H]5CC[C@]43C)[C@@H]12.CCCCCCCCCCCC[N+](C)(C)Cc1ccccc1
